The numbers were not newly measured in patent US20100284970A1, “BEN[…] H1 RECEPTOR AND/OR NS4B PROTEIN” (AUSPEX PHARMACEUTICALS, INC., priority 2009, published 2010), which cites them from elsewhere.

This series concerns the target T1, hepatitis C virus NS4B protein (Hepatitis C virus genotype 1b, UniProt Q9WMX2).
T1 construct: hepatitis C virus NS4B protein
As to conditions: Einav et al., Nature Biotechnology, 2008, 26, 1019-1027.

T1 sequence (Q9WMX2 1712-1972): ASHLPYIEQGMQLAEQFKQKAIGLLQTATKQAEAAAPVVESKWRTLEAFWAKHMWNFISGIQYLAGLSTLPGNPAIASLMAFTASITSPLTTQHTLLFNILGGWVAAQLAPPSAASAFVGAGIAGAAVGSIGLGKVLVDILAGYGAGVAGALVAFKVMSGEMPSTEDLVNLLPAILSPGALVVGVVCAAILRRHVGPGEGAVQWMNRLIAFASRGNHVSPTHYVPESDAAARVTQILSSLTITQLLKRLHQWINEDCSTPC

Turning to `Clc1ccc(Cn2c(CN3CCCC3)nc3ccccc32)cc1` [Clemizole, 1-[(4-chlorophenyl)methyl]-2-(1-pyrrolidinylmethyl)benzimidazole], the “binding of hepatitis C virus RNA to hepatitis C virus NS4B protein” value is “inhibit the binding of hepatitis C virus RNA to hepatitis C virus NS4B protein”.
